From patent EP0597303A2, “Cephalosporin derivatives” (priority 1992, dated 1994)
Structures can show the parent of a compound that is named as a salt. Where two headings read alike, the source gives them in different places.

Legend:
Assay in all cases: MIC, Agar (Mueller Hinton) Dilution Method
Format in all cases: cell-based
[1] = system: Staph. aureus ATCC 25923; conditions: Staphylococcus aureus, ATCC25923, Gram Positive and Others
Description: (§1) The in vitro activity of the compounds of formula I of the present invention as measured by the Minimum Inhibitory Concentration (MIC) in micrograms/ml utilizing the Agar (Mueller Hinton) Dilution Method against a variety of Gram-positive and Gram-negative organisms, is set forth in Table 1.

[2] = system: K. oxytoca 1082EN; conditions: Klebsiella oxytoca
Description: as §1

[3] = system: Staph. aureus 3037B; conditions: Staphylococcus aureus; Staph. aureus 3037B; Gram Positive and Others; read-out: MIC
Description: as §1

[4] = system: Prot. vulgaris 1028 BC; conditions: Proteus vulgaris
Description: as §1

[5] = system: Staph. aureus 753; conditions: Staphylococcus aureus; Staph. aureus 753; methicillin-resistant; Gram Positive and Others; read-out: MIC
Description: as §1

[6] = system: Ps. aeruginosa ATCC 27853; conditions: Pseudomonas aeruginosa, ATCC27853, Gram Negative
Description: as §1

[7] = system: Staph. aureus 67; conditions: Staphylococcus aureus
Description: as §1

[8] = system: E. coli ATCC 25922; conditions: Escherichia coli, ATCC25922
Description: as §1

[9] = system: Ps. aeruginosa 56M; conditions: Pseudomonas aeruginosa, Gram Negative
Description: as §1

[10] = system: E. coli HMS1; conditions: Escherichia coli
Description: as §1

[11] = system: Enterobacter cloacae P99
Description: as §1

[12] = system: E. coli 4; conditions: Escherichia coli
Description: as §1

[13] = system: Enter. cloacae 5699; conditions: Enterobacter cloacae, Gram Negative
Description: as §1

[14] = system: K. pneumoniae 369; conditions: Klebsiella pneumoniae
Description: as §1

[15] = system: Citrobacter freundii BS-16; conditions: BS16; Citrobacter freundii BS-16; constitutive ß-lactamase producer; Gram Negative; read-out: MIC
Description: as §1

[16] = system: E. coli DC-0; conditions: Escherichia coli, DC0, Gram Negative
Description: as §1

[17] = system: E. coli 2721B; conditions: Escherichia coli; E. coli 2721B; Gram Negative; read-out: MIC
Description: as §1

[18] = system: E. coli 1894 E; conditions: Escherichia coli
Description: as §1

[19] = system: E. coli 1573E; conditions: Escherichia coli
Description: as §1

[20] = system: Str. pyogenes 503-782; conditions: Streptococcus pyogenes, 503782
Description: as §1

[21] = system: E. coli Leo HA2; conditions: Escherichia coli, LEOHA2, Gram Negative
Description: as §1

[22] = system: E. coli 1269B; conditions: Escherichia coli, Gram Negative
Description: as §1

[23] = system: Bacillus subtilis 558
Description: as §1

[24] = system: Enter. cloacae 4946; conditions: Enterobacter cloacae, Gram Negative
Description: as §1

[25] = system: Ps. cepacia 1973 B; conditions: Burkholderia cepacia, Gram Negative
Description: as §1

[26] = system: Str. pneumoniae N82-012-MC; conditions: Streptococcus pneumoniae, N82012MC
Description: as §1

[27] = system: Xan. maltophilia 2897B; conditions: Stenotrophomonas maltophilia, Gram Negative
Description: as §1

[28] = system: Ps. aeruginosa K799/WT; conditions: Pseudomonas aeruginosa, Gram Negative
Description: as §1

[29] = system: Staph. aureus 3647B; conditions: Staphylococcus aureus
Description: as §1

[30] = system: Prot. mirabilis 2; conditions: Proteus mirabilis; Prot. mirabilis 2; Gram Negative; read-out: MIC
Description: as §1

[31] = system: Ps. aeruginosa 765; conditions: Pseudomonas aeruginosa, Gram Negative
Description: as §1

[32] = system: Candida albicans 155; conditions: Gram Positive and Others
Description: as §1

[33] = system: Bacillus megaterium 164; conditions: Priestia megaterium
Description: as §1

[34] = system: Staphylococcus aureus Smith; conditions: Staphylococcus aureus Smith; Gram Positive and Others; read-out: MIC
Description: as §1

[35] = system: Ps. aeruginosa 56-1B; conditions: Pseudomonas aeruginosa, 561B
Description: as §1

[36] = system: E. coli 94; conditions: Escherichia coli, Gram Negative
Description: as §1

[37] = system: Ser. marcescens MA; conditions: Serratia marcescens, Gram Negative
Description: as §1

[38] = system: Streptococcus pneumoniae 6303; conditions: Streptococcus pneumoniae, 6303
Description: as §1

[39] = system: Ps. aeruginosa 8780; conditions: Pseudomonas aeruginosa, Gram Negative
Description: as §1

[40] = Staph. aureus 67, methicillin-resistant, Gram Positive and Others, read-out: MIC
[41] = E. coli HMS1, Gram Negative, read-out: MIC
[42] = K. pneumoniae 369, Gram Negative, read-out: MIC
[43] = Str. pyogenes 503-782, Gram Positive and Others, read-out: MIC
[44] = Str. pneumoniae N82-012-MC, Gram Positive and Others, read-out: MIC
[45] = Staph. aureus 3647B, Gram Positive and Others, read-out: MIC
[46] = Bacillus megaterium 164, Gram Positive and Others, read-out: MIC
[47] = Ps. aeruginosa 56-1B, Gram Negative, read-out: MIC
[48] = K. oxytoca 1082EN, Gram Negative, read-out: MIC
[49] = E. coli 1894 E, Gram Negative, read-out: MIC
[50] = E. coli 1573E, Gram Negative, read-out: MIC

Compound `O=C(Cc1cccs1)N[C@@H]1C(=O)N2C(C(=O)O)=C(COC(=O)N3CCN(c4c(F)cc5c(=O)c(C(=O)O)cn(C6CC6)c5c4F)CC3)CS[C@H]12` [Formula Ia, [6R,7R]-3-[[[[4-(3-Carboxy-1-cyclopropyl-6,8-difluoro-1,4-dihydro-4-oxo-7-quinolinyl)-1-piperazinyl]carbonyl]-oxy]-methyl]-8-oxo-7-[(2-thienylacetyl)amino]-5-thia-1-azabicyclo-[4.2.0]oct-2-ene-2-carboxylic acid] has an MIC [1] of 0.25 µg/mL, an MIC ([2]; 1082EN) of 0.0625 µg/mL and an MIC [3] of 1 µg/mL. It also gave an MIC ([4]; 1028BC) of 0.0625 µg/mL, an MIC [5] of 0.5 µg/mL and an MIC [6] of 1 µg/mL. For the same compound, the MIC [7, 40] was 1 µg/mL, the MIC [8] was 0.0625 µg/mL and the MIC [9] was 0.25 µg/mL. For the same compound, the MIC [10, 41] was no more than 0.0156 µg/mL, the MIC [11] was no more than 0.0156 µg/mL and the MIC ([12]; E. coli 4, Gram Negative, read-out: MIC) was 0.125 µg/mL. For the same compound, the MIC [13] was 0.125 µg/mL, the MIC [14, 42] was 0.5 µg/mL and the MIC [15] was 0.0313 µg/mL. For the same compound, the MIC [16] was 2 µg/mL, the MIC [17] was 0.0313 µg/mL and the MIC ([18]; 1894E) was 0.0625 µg/mL. The MIC ([19]; 1573E) was 0.0625 µg/mL, the MIC [20, 43] was no more than 0.0156 µg/mL and the MIC [21] was no more than 0.0156 µg/mL. The MIC [22] was 0.0313 µg/mL, the MIC ([23]; Bacillus subtilis 558, Gram Positive and Others, read-out: MIC) was 0.0313 µg/mL and the MIC [24] was 0.0625 µg/mL. The MIC [25] was 4 µg/mL, the MIC [26, 44] was 0.0313 µg/mL and the MIC [27] was 1 µg/mL. For the same compound, the MIC [28] was 2 µg/mL, the MIC [29, 45] was 0.5 µg/mL and the MIC [30] was 0.25 µg/mL. For the same compound, the MIC [31] was 2 µg/mL, the MIC [32] was greater than 128 µg/mL and the MIC [33, 46] was 0.125 µg/mL. The MIC [34] was 0.25 µg/mL, the MIC [35, 47] was 0.25 µg/mL and the MIC [36] was 0.0625 µg/mL. For the same compound, the MIC [37] was 16 µg/mL.

Work on `N#CCC(=O)N[C@@H]1C(=O)N2C(C(=O)O)=C(COC(=O)NC3CCN(c4c(F)cc5c(=O)c(C(=O)O)cn(C6CC6)c5c4F)C3)CS[C@H]12` (stereo partly shown) [Formula Ib, [6R,7R]-3-[[[[[1-(3-Carboxy-1-cyclopropyl-6,8-difluoro-1,4-dihydro-4-oxo-7-quinolinyl-3-[R,S]-pyrrolidinyl]-amino]carbonyl]oxy]methyl]-7-[(cyanoacetyl)amino]-8-oxo-5-thia-1-azabicyclo[4.2.0]oct-2-ene-2-carboxyiic acid monosodium salt] yielded an MIC [1] of 0.25 µg/mL, an MIC [2, 48] of 0.0625 µg/mL and an MIC [3] of 0.25 µg/mL. For the same compound, the MIC ([4]; 1028BC) was 0.125 µg/mL, the MIC [5] was 0.25 µg/mL and the MIC [6] was 1 µg/mL. The MIC [7, 40] was 0.25 µg/mL, the MIC ([8]; E. coli ATCC 25922, Gram Negative, read-out: MIC) was 0.0625 µg/mL and the MIC [9] was 0.25 µg/mL. For the same compound, the MIC ([10]; HMS1) was 0.0313 µg/mL, the MIC [11] was 0.0313 µg/mL and the MIC [12]; 4 was 0.125 µg/mL. For the same compound, the MIC [13] was 0.25 µg/mL, the MIC [14, 42] was 0.25 µg/mL and the MIC [15] was 0.0625 µg/mL. It also gave an MIC [16] of 1 µg/mL, an MIC [17] of 0.0625 µg/mL and an MIC [18, 49] of 0.0625 µg/mL. It also gave an MIC [38] of 0.125 µg/mL, an MIC [19, 50] of 0.0625 µg/mL and an MIC [39] of 1 µg/mL. It also gave an MIC [20, 43] of 0.0625 µg/mL, an MIC [21] of 0.0156 µg/mL and an MIC [22] of 0.0625 µg/mL. It also gave an MIC ([23]; Bacillus subtilis, 558) of 0.125 µg/mL, an MIC [24] of 0.125 µg/mL and an MIC [25] of 2 µg/mL. It also gave an MIC [26, 44] of 0.5 µg/mL, an MIC [27] of 0.25 µg/mL and an MIC [28] of 0.5 µg/mL. It also gave an MIC [29, 45] of 0.25 µg/mL, an MIC [30] of 0.25 µg/mL and an MIC [31] of 1 µg/mL. For the same compound, the MIC [32] was greater than 128 µg/mL, the MIC [33, 46] was 0.0625 µg/mL and the MIC [34] was 0.25 µg/mL. For the same compound, the MIC [35, 47] was 0.5 µg/mL, the MIC [36] was 0.125 µg/mL and the MIC [37] was 4 µg/mL.

`N#CCC(=O)N[C@@H]1C(=O)N2C(C(=O)O)=C(COC(=O)N[C@H]3CCN(c4c(F)cc5c(=O)c(C(=O)O)cn(C6CC6)c5c4F)C3)CS[C@H]12` [Formula Iba, [6R-[3(S^*), 6 alpha, 7 beta]]-3-[[[[[1-(3-Carboxy-1-cyclopropyl-6,8-difluoro-1,4-dihydro-4-oxo-7-quinolinyl-3-pyrrolidinyl]-amino]carbonyl]oxy]methyl]-7-[(cyanoacetyl)amino]-8-oxo-5-thia 1-azabicyclo[4.2.0]oct-2-ene-2-carboxylic acid monosodium salt] was tested, and the MIC [1] was 0.0625 µg/mL, the MIC [2, 48] was no more than 0.0156 µg/mL and the MIC [3] was 0.0625 µg/mL. For the same compound, the MIC ([4]; Prot. vulgaris 1028 BC, Gram Negative, read-out: MIC) was no more than 0.0156 µg/mL, the MIC [5] was 0.0625 µg/mL and the MIC [6] was 1 µg/mL. It also gave an MIC [7]; 67 of 0.125 µg/mL, an MIC [8] of 0.0313 µg/mL and an MIC [9] of 0.0625 µg/mL. For the same compound, the MIC [10, 41] was no more than 0.0156 µg/mL, the MIC [11] was no more than 0.0156 µg/mL and the MIC [12]; 4 was 0.0313 µg/mL. For the same compound, the MIC [13] was 0.0625 µg/mL, the MIC [14]; 369 was 0.125 µg/mL and the MIC [15] was no more than 0.0156 µg/mL. It also gave an MIC [16] of 0.5 µg/mL, an MIC [17] of no more than 0.0156 µg/mL and an MIC [18, 49] of no more than 0.0156 µg/mL. The MIC [38] was 0.0313 µg/mL, the MIC [19, 50] was no more than 0.0156 µg/mL and the MIC [39] was 0.5 µg/mL. The MIC [20] was 0.0313 µg/mL, the MIC [21] was no more than 0.0156 µg/mL and the MIC [22] was no more than 0.0156 µg/mL. It also gave an MIC ([23]; Bacillus subtilis, 558) of 0.0313 µg/mL, an MIC [24] of 0.0313 µg/mL and an MIC [25] of 4 µg/mL. It also gave an MIC [26] of 0.125 µg/mL, an MIC [27] of 0.25 µg/mL and an MIC [28] of 0.5 µg/mL. For the same compound, the MIC ([29]; 3647B) was 0.0313 µg/mL, the MIC [30] was 0.0625 µg/mL and the MIC [31] was 0.5 µg/mL. It also gave an MIC [32] greater than 128 µg/mL, an MIC [33]; 164 of 0.0313 µg/mL and an MIC [34] of 0.0625 µg/mL. For the same compound, the MIC [35] was 0.125 µg/mL, the MIC [36] was 0.0313 µg/mL and the MIC [37] was 4 µg/mL.
